Test results as given in patent US20080200454A1, “CARBON-LINKED TETRAHYDRO-PYRAZOLO-PYRIDINE MODULATORS OF CATHEPSIN S” (priority 2007, published 2008).
Read-outs that look alike come from different tables or passages of the source.

Target: Recombinant human cathepsin S (CatS) (Homo sapiens, UniProt P25774)
Experiment: Recombinant human cathepsin S (CatS) inhibition assay, fluorogenic substrate Z-Valine-Valine-Arginine-AMC;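 note: Baculovirus-expressed CatS in pH 5.0 sodium acetate buffer with DTT and NaCl, fluorescence read each minute over 20 min, inhibition derived from rate slope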
Description: Recombinant human cathepsin S (CatS) was expressed in the baculovirus system and purified in one step with a thiopropyl-sepharose column. 10-L yielded ˜700 mg of CatS and N-terminal sequencing confirmed identity. The assay is run in 150 mM sodium acetate pH 5.0 containing 1.5 mM DTT and 150 mM NaCl. […] Using 2 ng/well of CatS, the production of product is linear and yields-7-fold signal after 20 min with only 20% loss of substrate. Measurements are taken every min for 20 min. The rate is calculated from the slope of the increase in fluorescence and the percent inhibition is calculated from this.

Chain of Recombinant human cathepsin S (CatS) (P25774 115-331): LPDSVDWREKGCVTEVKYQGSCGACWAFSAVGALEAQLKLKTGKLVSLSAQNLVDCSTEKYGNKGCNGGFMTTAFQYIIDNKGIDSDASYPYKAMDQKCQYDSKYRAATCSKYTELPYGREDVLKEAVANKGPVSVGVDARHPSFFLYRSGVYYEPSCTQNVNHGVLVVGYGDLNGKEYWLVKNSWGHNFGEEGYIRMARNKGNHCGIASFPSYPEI

IC50 [nM]	SMILES	IC50 (CatS IC50) [nM]
30	C[C@H]1COCCN1CCCn1nc(-c2ccc(Cl)c(C#Cc3ccc(Cl)c(C(=O)NC[C@@H]4CCCN4)c3)c2)c2c1CCN(C(=O)C(N)=O)C2 [Example 556, 5-{[5-(5-[Amino(oxo)acetyl]-1-{3-[(3S)-3-methylmorpholin-4-yl]propyl}-4,5,6,7-tetrahydro-1H-pyrazolo[4,3-c]pyridin-3-yl)-2-chlorophenyl]ethynyl}-2-chloro-N-[(2S)-pyrrolidin-2-ylmethyl]benzamide]	
30	NC(=O)C(=O)N1CCc2c(c(-c3ccc(Cl)c(C#Cc4ccc(Cl)c(C(=O)NC[C@@H]5CCCN5)c4)c3)nn2CCCN2CCSCC2)C1 [Example 557, 5-[(5-{5-[Amino(oxo)acetyl]-1-(3-thiomorpholin-4-ylpropyl)-4,5,6,7-tetrahydro-1H-pyrazolo[4,3-c]pyridin-3-yl}-2-chlorophenyl)ethynyl]-2-chloro-N-[(2S)-pyrrolidin-2-ylmethyl]benzamide]	
30	NC(=O)N1CCc2c(c(-c3ccc(Cl)c(C#Cc4ccc(Cl)c(C(=O)NC[C@@H]5CCCN5)c4)c3)nn2CCCN2CCSCC2)C1 [Example 558, 3-{4-Chloro-3-[(4-chloro-3-{[(2S)-pyrrolidin-2-ylmethyl]carbamoyl}phenyl)ethynyl]phenyl}-1-(3-thiomorpholin-4-ylpropyl)-1,4,6,7-tetrahydro-5H-pyrazolo[4,3-c]pyridine-5-carboxamide]	
100	C[C@H]1COCCN1CCCn1nc(-c2ccc(Cl)c(C#Cc3ccc(Cl)c(COC4CCN(C(=O)OC(C)(C)C)C4)c3)c2)c2c1CCN(C(=O)C(N)=O)C2 (stereo partly drawn) [Example 559, tert-Butyl 3-[(5-{[5-(5-[amino(oxo)acetyl]-1-{3-[(3S)-3-methylmorpholin-4-yl]propyl}-4,5,6,7-tetrahydro-1H-pyrazolo[4,3-c]pyridin-3-yl)-2-chlorophenyl]ethynyl}-2-chlorobenzyl)oxy]pyrrolidine-1-carboxylate]	
	C[C@H]1COCCN1CCCn1nc(-c2ccc(Cl)c(C#Cc3ccc(Cl)c(C(=O)NCCCO)c3)c2)c2c1CCN(C(=O)C(N)=O)C2 [Example 560, 5-{[5-(5-[Amino(oxo)acetyl]-1-{3-[(3S)-3-methylmorpholin-4-yl]propyl}-4,5,6,7-tetrahydro-1H-pyrazolo[4,3-c]pyridin-3-yl)-2-chlorophenyl]ethynyl}-2-chloro-N-(3-hydroxypropyl)benzamide]	20
30	C[C@H]1COCCN1CCCn1nc(-c2ccc(Cl)c(C#Cc3ccc(Cl)c(CNCC(C)(C)O)c3)c2)c2c1CCN(C(=O)C(N)=O)C2 [Example 561, 2-(3-{4-Chloro-3-[(4-chloro-3-{[(2-hydroxy-2-methylpropyl)amino]methyl}phenyl)ethynyl]phenyl}-1-{3-[(3S)-3-methylmorpholin-4-yl]propyl}-1,4,6,7-tetrahydro-5H-pyrazolo[4,3-c]pyridin-5-yl)-2-oxoacetamide]	
30	CC(C)(O)CNCc1cc(C#Cc2cc(-c3nn(CCCN4CCSCC4)c4c3CN(C(=O)C(N)=O)CC4)ccc2Cl)ccc1Cl [Example 562, 2-[3-{4-Chloro-3-[(4-chloro-3-{[(2-hydroxy-2-methylpropyl)amino]methyl}phenyl)ethynyl]phenyl}-1-(3-thiomorpholin-4-ylpropyl)-1,4,6,7-tetrahydro-5H-pyrazolo[4,3-c]pyridin-5-yl]-2-oxoacetamide]	
30	NC(=O)C(=O)N1CCc2c(c(-c3ccc(Cl)c(C#Cc4ccc(Cl)c(CN[C@@H](CO)c5ccccc5)c4)c3)nn2CCCN2CCSCC2)C1 [Example 563, 2-[3-(4-Chloro-3-{[4-chloro-3-({[(1R)-2-hydroxy-1-phenylethyl]amino}methyl)phenyl]ethynyl}phenyl)-1-(3-thiomorpholin-4-ylpropyl)-1,4,6,7-tetrahydro-5H-pyrazolo[4,3-c]pyridin-5-yl]-2-oxoacetamide]	
30	NC(=O)C(=O)N1CCc2c(c(-c3ccc(Cl)c(C#Cc4ccc(Cl)c(C(=O)N[C@@H](CO)c5ccccc5)c4)c3)nn2CCCN2CCSCC2)C1 [Example 564, 5-[(5-{5-[Amino(oxo)acetyl]-1-(3-thiomorpholin-4-ylpropyl)-4,5,6,7-tetrahydro-1H-pyrazolo[4,3-c]pyridin-3-yl}-2-chlorophenyl)ethynyl]-2-chloro-N-[(1R)-2-hydroxy-1-phenylethyl]benzamide]	
	CNCCCNC(=O)c1cc(C#Cc2cc(-c3nn(CCCN4CCSCC4)c4c3CN(C(=O)C(N)=O)CC4)ccc2Cl)ccc1Cl [Example 565, 5-[(5-{5-[Amino(oxo)acetyl]-1-(3-thiomorpholin-4-ylpropyl)-4,5,6,7-tetrahydro-1H-pyrazolo[4,3-c]pyridin-3-yl}-2-chlorophenyl)ethynyl]-2-chloro-N-[3-(methylamino)propyl]benzamide]	20
20	CCNCc1cc(C#Cc2cc(-c3nn(CCCN4CCOC[C@@H]4C)c4c3CN(C(=O)C(N)=O)CC4)ccc2Cl)ccc1Cl [Example 566, 2-(3-[4-Chloro-3-({4-chloro-3-[(ethylamino)methyl]phenyl}ethynyl)phenyl]-1-{3-[(3S)-3-methylmorpholin-4-yl]propyl}-1,4,6,7-tetrahydro-5H-pyrazolo[4,3-c]pyridin-5-yl)-2-oxoacetamide]	
	NC(=O)C(=O)N1CCc2c(c(-c3ccc(Cl)c(C#Cc4ccc(Cl)c(C(=O)N5CCCC5)c4)c3)nn2CCCN2CCSCC2)C1 [Example 567, 2-[3-(4-Chloro-3-{[4-chloro-3-(pyrrolidin-1-ylcarbonyl)phenyl]ethynyl}phenyl)-1-(3-thiomorpholin-4-ylpropyl)-1,4,6,7-tetrahydro-5H-pyrazolo[4,3-c]pyridin-5-yl]-2-oxoacetamide]	160
	NC(=O)C(=O)N1CCc2c(c(-c3ccc(Cl)c(C#Cc4ccc(Cl)c(C(=O)N5CCNCC5)c4)c3)nn2CCCN2CCSCC2)C1 [Example 568, 2-[3-(4-Chloro-3-{[4-chloro-3-(piperazin-1-ylcarbonyl)phenyl]ethynyl}phenyl)-1-(3-thiomorpholin-4-ylpropyl)-1,4,6,7-tetrahydro-5H-pyrazolo[4,3-c]pyridin-5-yl]-2-oxoacetamide]	140
	NC(=O)C(=O)N1CCc2c(c(-c3ccc(Cl)c(C#Cc4ccc(Cl)c(C(=O)N5CCCNCC5)c4)c3)nn2CCCN2CCSCC2)C1 [Example 569, 2-[3-(4-Chloro-3-{[4-chloro-3-(1,4-diazepan-1-ylcarbonyl)phenyl]ethynyl}phenyl)-1-(3-thiomorpholin-4-ylpropyl)-1,4,6,7-tetrahydro-5H-pyrazolo[4,3-c]pyridin-5-yl]-2-oxoacetamide]	150
	NC(=O)N1CCc2c(c(-c3ccc(Cl)c(C#Cc4ccc(Cl)c(C(=O)N5CCCC5)c4)c3)nn2CCCN2CCSCC2)C1 [Example 570, 3-(4-Chloro-3-{[4-chloro-3-(pyrrolidin-1-ylcarbonyl)phenyl]ethynyl}phenyl)-1-(3-thiomorpholin-4-ylpropyl)-1,4,6,7-tetrahydro-5H-pyrazolo[4,3-c]pyridine-5-carboxamide]	260
	NC(=O)N1CCc2c(c(-c3ccc(Cl)c(C#Cc4ccc(Cl)c(C(=O)N5CCCNCC5)c4)c3)nn2CCCN2CCSCC2)C1 [Example 572, 3-(4-Chloro-3-{[4-chloro-3-(1,4-diazepan-1-ylcarbonyl)phenyl]ethynyl}phenyl)-1-(3-thiomorpholin-4-ylpropyl)-1,4,6,7-tetrahydro-5H-pyrazolo[4,3-c]pyridine-5-carboxamide]	170
	C[C@H]1COCCN1CCCn1nc(-c2ccc(Cl)c(C#Cc3ccc(Cl)c(C(=O)N4CCCC4)c3)c2)c2c1CCN(C(=O)C(N)=O)C2 [Example 573, 2-[3-(4-Chloro-3-{[4-chloro-3-(pyrrolidin-1-ylcarbonyl)phenyl]ethynyl}phenyl)-1-{3-[(3S)-3-methylmorpholin-4-yl]propyl}-1,4,6,7-tetrahydro-5H-pyrazolo[4,3-c]pyridin-5-yl]-2-oxoacetamide]	190
	C[C@H]1COCCN1CCCn1nc(-c2ccc(Cl)c(C#Cc3ccc(Cl)c(C(=O)N4CCNCC4)c3)c2)c2c1CCN(C(=O)C(N)=O)C2 [Example 574, 2-[3-(4-Chloro-3-{[4-chloro-3-(piperazin-1-ylcarbonyl)phenyl]ethynyl}phenyl)-1-{3-[(3S)-3-methylmorpholin-4-yl]propyl}-1,4,6,7-tetrahydro-5H-pyrazolo[4,3-c]pyridin-5-yl]-2-oxoacetamide]	140
	C[C@H]1COCCN1CCCn1nc(-c2ccc(Cl)c(C#Cc3ccc(Cl)c(C(=O)N4CCCNCC4)c3)c2)c2c1CCN(C(=O)C(N)=O)C2 [Example 575, 2-[3-(4-Chloro-3-{[4-chloro-3-(1,4-diazepan-1-ylcarbonyl)phenyl]ethynyl}phenyl)-1-{3-[(3S)-3-methylmorpholin-4-yl]propyl}-1,4,6,7-tetrahydro-5H-pyrazolo[4,3-c]pyridin-5-yl]-2-oxoacetamide]	170
	C[C@H]1COCCN1CCCn1nc(-c2ccc(Cl)c(C#Cc3ccc(Cl)c(C(=O)NCCCN(C)C(=O)OC(C)(C)C)c3)c2)c2c1CCN(C(=O)C(N)=O)C2 [Example 576, tert-Butyl (3-{[(5-{[5-(5-[amino(oxo)acetyl]-1-{3-[(3S)-3-methylmorpholin-4-yl]propyl}-4,5,6,7-tetrahydro-1H-pyrazolo[4,3-c]pyridin-3-yl)-2-chlorophenyl]ethynyl}-2-chlorophenyl)carbonyl]amino}propyl)methylcarbamate]	50
	C[C@H]1COCCN1CCCn1nc(-c2ccc(Cl)c(C#Cc3ccc(Cl)c(C(=O)NCCCNC(=O)OC(C)(C)C)c3)c2)c2c1CCN(C(=O)C(N)=O)C2 [Example 577, tert-Butyl (3-{[(5-{[5-(5-[amino(oxo)acetyl]-1-{3-[(3S)-3-methylmorpholin-4-yl]propyl}-4,5,6,7-tetrahydro-1H-pyrazolo[4,3-c]pyridin-3-yl)-2-chlorophenyl]ethynyl}-2-chlorophenyl)carbonyl]amino}propyl)carbamate]	20
20	NC(=O)C(=O)N1CCc2c(c(-c3ccc(Cl)c(C#Cc4ccc(Cl)c(C(=O)NC[C@@H]5CCNC5)c4)c3)nn2CCCN2CCSCC2)C1 [Example 578, 5-[(5-{5-[Amino(oxo)acetyl]-1-(3-thiomorpholin-4-ylpropyl)-4,5,6,7-tetrahydro-1H-pyrazolo[4,3-c]pyridin-3-yl}-2-chlorophenyl)ethynyl]-2-chloro-N-[(3R)-pyrrolidin-3-ylmethyl]benzamide]	
